Measured values: patent publication US11414436B2, “Non-coordinating anion type activators containing cation having large alkyl groups” (ExxonMobil Chemical Patents Inc., priority 2018, dated 2022)
Where “and” joins values, the source holds several entries; their conditions need not be identical. Equal values may be shown once. Blank lines part the entries; values can stand above or below the molecule they belong to.

Legend:
[1] = Ethylene-octene copolymerization in parallel pressure reactor, non-metallocene catalyst CAT-3; details: catalyst CAT-3 20 nmol; activator 1.1 equiv; 100° C.; 135 psi; 1-octene 100 uL; TNOAL 0.5 umol
Protocol: (§1) Solutions of the metal complexes and activators were prepared in a drybox using toluene or methylcyclohexane. Concentrations were typically 0.2 mmol/L. Tri-n-octylaluminum (TNOAL, neat, AkzoNobel) was typically used as a scavenger. Concentration of the TNOAL solution in toluene ranged from 0.5 to 2.0 mmol/L.
(§2) Polymerizations were carried out in a parallel pressure reactor, as generally described in U.S. Pat. Nos. 6,306,658; 6,455,316; 6,489,168; WO 00/09255; and Murphy, V. et al. (2003) “A Fully Integrated High-Throughput Screening Methodology for the Discovery of New Polyolefin Catalysts: Discovery of a New Class of High Temperature Single-Site Group (IV) Copolymerization Catalysts,” J. Am. Chem. Soc., v. 125, pp. 4306-4317, each of which is fully incorporated herein by reference. […] Although the specific quantities, temperatures, solvents, reactants, reactant ratios, pressures, and other variables are frequently changed from one polymerization run to the next, the following describes a typical polymerization performed in a parallel pressure reactor.
(§3) Ethylene-Octene Copolymerization (EO).
(§4) A pre-weighed glass vial insert and disposable stirring paddle were fitted to each reaction vessel of the reactor, which contains 48 individual reaction vessels. The reactor was then closed and purged with ethylene. Each vessel was charged with enough solvent (typically isohexane) to bring the total reaction volume, including the subsequent additions, to the desired volume, typically 5 mL. 1-octene, if required, was injected into the reaction vessel and the reactor was heated to the set temperature and pressurized to the predetermined pressure of ethylene, while stirring at 800 rpm. The aluminum compound (such as tri-n-octylaluminum) in toluene was then injected as scavenger followed by addition of the activator solution (typically 1.0-1.2 molar equivalents).
(§5) The catalyst (and activator solutions for Run A) were all prepared in toluene. The catalyst solution (typically 0.020-0.080 μmol of metal complex) was injected into the reaction vessel and the polymerization was allowed to proceed until a pre-determined amount of ethylene (quench value typically 20 psi) had been used up by the reaction. Alternatively, the reaction may be allowed to proceed for a set amount of time (maximum reaction time typically 30 minutes). Ethylene was added continuously (through the use of computer controlled solenoid valves) to the autoclaves during polymerization to maintain reactor gauge pressure (P setpt, +/−2 psig) and the reactor temperature (T) was monitored and typically maintained within +/−1° C. The reaction was quenched by pressurizing the vessel with compressed air. After the reactor was vented and cooled, the glass vial insert containing the polymer product and solvent was removed from the pressure cell and the inert atmosphere glove box, and the volatile components were removed using a Genevac HT-12 centrifuge and Genevac VC3000D vacuum evaporator operating at elevated temperature and reduced pressure. The vial was then weighed to determine the yield of the polymer product. The resultant polymer was analyzed by Rapid GPC (see below) to determine the molecular weight, by FT-IR (see below) to determine percent octene incorporation, and by DSC (see below) to determine melting point (Tm).
(§6) Equivalence is determined based on the mole equivalents relative to the moles of the transition metal in the catalyst complex.
(§7) Activators of the present disclosure can also be used for activating non-metallocene catalysts for polymerization of olefins. Table 4 illustrates copolymerization of ethylene and octene using activators of the present disclosure and non-metallocene catalysts (CAT-1, CAT-2, CAT-3, and CAT-4).

[2] = Propylene homopolymerization in parallel pressure reactor, MCN-1 with ammonium borate activators; details: for activity: isohexane; for average catalyst activity, comparison of the four activators (FIG. 6): MCN-1, polypropylene at 100° C., Table 7 runs
[3] = Solubility studies of the activators (saturated solution in isohexane or methylcyclohexane); format: physicochemical; details: methylcyclohexane
[4] = Ethylene-octene copolymerization in parallel pressure reactor, non-metallocene catalyst CAT-1; details: catalyst CAT-1 20 nmol; activator 1.1 equiv; 100° C.; 135 psi; 1-octene 100 uL; TNOAL 0.5 umol
Protocol: as §1, §2, §3, §4, §5, §6, §7

[5] = Ethylene-octene copolymerization in parallel pressure reactor, non-metallocene catalyst CAT-2; details: catalyst CAT-2 20 nmol; activator 1.1 equiv; 100° C.; 135 psi; 1-octene 100 uL; TNOAL 0.5 umol
Protocol: as §1, §2, §3, §4, §5, §6, §7

[6] = Ethylene-octene copolymerization in parallel pressure reactor, non-metallocene catalyst CAT-4; details: catalyst CAT-4 20 nmol; activator 1.1 equiv; 100° C.; 135 psi; 1-octene 100 uL; TNOAL 0.5 umol
Protocol: as §1, §2, §3, §4, §5, §6, §7

[7] = Activator Equiv 1.0, TNOAL 0.25 umol, MCN-1 30 nmol, 85° C., propylene 135 psi
[8] = Activator Equiv 1.0, TNOAL 0.50 umol, MCN-1 30 nmol, 85° C., propylene 135 psi
[9] = Activator Equiv 1.0, TNOAL 0.75 umol, MCN-1 30 nmol, 85° C., propylene 135 psi
[10] = Activator Equiv 1.2, TNOAL 0.25 umol, MCN-1 30 nmol, 85° C., propylene 135 psi
[11] = Activator Equiv 1.2, TNOAL 0.50 umol, MCN-1 30 nmol, 85° C., propylene 135 psi
[12] = Activator Equiv 1.2, TNOAL 0.75 umol, MCN-1 30 nmol, 85° C., propylene 135 psi
[13] = Activator Equiv 1.4, TNOAL 0.25 umol, MCN-1 30 nmol, 85° C., propylene 135 psi
[14] = Activator Equiv 1.4, TNOAL 0.50 umol, MCN-1 30 nmol, 85° C., propylene 135 psi
[15] = Activator Equiv 1.4, TNOAL 0.75 umol, MCN-1 30 nmol, 85° C., propylene 135 psi
[16] = Activator Equiv 1.6, TNOAL 0.25 umol, MCN-1 30 nmol, 85° C., propylene 135 psi
[17] = Activator Equiv 1.6, TNOAL 0.50 umol, MCN-1 30 nmol, 85° C., propylene 135 psi
[18] = Activator Equiv 1.6, TNOAL 0.75 umol, MCN-1 30 nmol, 85° C., propylene 135 psi
[19] = propylene 150 psi, 100° C., MCN-1 = 30 nmol, activator = 33 nmol, TNOAL 500 nmol

- Solubility limit in MeCy (wt % at 25° C.) [3]: 35 wt %
Molecule: CCCCCCCCCCCCCCCCCC[NH+](CCCCCCCCCCCCCCCCCC)c1ccc(C)cc1.Fc1c(F)c(F)c2c(F)c([B-](c3c(F)c(F)c4c(F)c(F)c(F)c(F)c4c3F)(c3c(F)c(F)c4c(F)c(F)c(F)c(F)c4c3F)c3c(F)c(F)c4c(F)c(F)c(F)c(F)c4c3F)c(F)c(F)c2c1F [DOdTH-BF28, 4-methyl-N,N-dioctadecylbenzenaminium-BF28]
- activity [1]: 838 kg/mmol/h and 829 kg/mmol/h
- activity [2, 7]: 271 kg/mmol/h and 259 kg/mmol/h and 246 kg/mmol/h
- activity [2, 8]: 212 kg/mmol/h and 194 kg/mmol/h and 175 kg/mmol/h
- activity [2, 9]: 138 kg/mmol/h and 132 kg/mmol/h and 120 kg/mmol/h
- activity [2, 10]: 354 kg/mmol/h and 295 kg/mmol/h and 281 kg/mmol/h
- activity [2, 11]: 242 kg/mmol/h and 211 kg/mmol/h and 191 kg/mmol/h
- activity [2, 12]: 168 kg/mmol/h and 142 kg/mmol/h and 134 kg/mmol/h
- activity [2, 13]: 315 kg/mmol/h and 284 kg/mmol/h and 261 kg/mmol/h
- activity [2, 14]: 225 kg/mmol/h and 186 kg/mmol/h and 180 kg/mmol/h
- activity [2, 15]: 173 kg/mmol/h and 153 kg/mmol/h and 144 kg/mmol/h
- activity [2, 16]: 283 kg/mmol/h and 267 kg/mmol/h
- activity [2, 17]: 265 kg/mmol/h and 196 kg/mmol/h and 188 kg/mmol/h
- activity [2, 18]: 174 kg/mmol/h and 150 kg/mmol/h and 134 kg/mmol/h
- average catalyst activity, comparison of the four activators (FIG. 6) [2]: somewhat lower activity
- activity [2, 19]: 138 kg/mmol/h and 153 kg/mmol/h and 101 kg/mmol/h
- activity [4]: 3873 kg/mmol/h and 3497 kg/mmol/h
- activity [5]: 1034 kg/mmol/h and 533 kg/mmol/h
- activity [6]: 48 kg/mmol/h and 46 kg/mmol/h

Molecule: N,N-dimethylanilinium tetrakis(heptafluoronaphthalen-2-yl)borate [DMAH-BF28, reference compound]
- activity [1]: 808 kg/mmol/h and 691 kg/mmol/h
- activity [2, 7]: 604 kg/mmol/h and 502 kg/mmol/h
- activity [2, 8]: 394 kg/mmol/h and 352 kg/mmol/h
- activity [2, 9]: 233 kg/mmol/h and 212 kg/mmol/h
- activity [2, 10]: 703 kg/mmol/h and 673 kg/mmol/h
- activity [2, 11]: 506 kg/mmol/h and 459 kg/mmol/h
- activity [2, 12]: 332 kg/mmol/h and 256 kg/mmol/h
- activity [2, 13]: 709 kg/mmol/h and 677 kg/mmol/h
- activity [2, 14]: 554 kg/mmol/h and 431 kg/mmol/h
- activity [2, 15]: 370 kg/mmol/h and 334 kg/mmol/h
- activity [2, 16]: 803 kg/mmol/h
- activity [2, 17]: 511 kg/mmol/h and 467 kg/mmol/h
- activity [2, 18]: 404 kg/mmol/h and 356 kg/mmol/h
- average catalyst activity, comparison of the four activators (FIG. 6) [2]: highest average activities
- activity [2, 19]: 175 kg/mmol/h and 231 kg/mmol/h and 160 kg/mmol/h and 121 kg/mmol/h and 211 kg/mmol/h and 188 kg/mmol/h and 190 kg/mmol/h
- activity ([2]; propylene, 85 °C, 135 psi, MCN-1 = 20 nmol, activator = 20 nmol, TNOAL 500 nmol): 138 kg/mmol/h
- activity [4]: 3494 kg/mmol/h and 3144 kg/mmol/h
- activity [5]: 1161 kg/mmol/h and 724 kg/mmol/h
- activity [6]: 59 kg/mmol/h and 54 kg/mmol/h
